Experimental data published in patent US11485733B2, “Azaquinoline derivatives” (BAYER ANIMAL HEALTH GMBH, priority 2017, dated 2022).

What was measured:
[1] = target: D. immitis Slo-1 (Dirofilaria immitis, UniProt I0DFK5); test: D. immitis Slo-1, action at a recombinant CHO cell line (membrane potential, FLIPR); type: cell-based
[2] = tested on: Nippostrongylus brasiliensis; test: Nippostrongylus brasiliensis (NIPOBR) adult worms, acetylcholine esterase readout; conditions: at 1 μg/ml (1 ppm), read-out: activity (reduction of AChE compared to negative control)
Method in brief: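 Adult worms washed in saline with penicillin/streptomycin/amphotericin B, then incubated in medium with test compound (DMSO) at final 10 μg/ml (10 ppm) or 1 μg/ml (1 ppm). Acetylcholine esterase activity in a medium aliquot served as anthelmintic readout, compared with negative control.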

[3] = tested on: Dirofilaria immitis microfilariae; test: Dirofilaria immitis microfilariae (DIROIM L1) motility; conditions: 72 h, read-out: EC50 (reduction of motility)
[4] = tested on: Dirofilaria immitis; test: Dirofilaria immitis (DIROIM L4) larval motility; conditions: 72 h, read-out: EC50 (reduction of motility)
[5] = tested on: Cooperia curticei; test: Cooperia curticei larval mortality; conditions: 120 h, read-out: activity (percentage of larval mortality)
Experimental: In Vitro Assay 6: Cooperia curticei
Solvent: Dimethyl Sulfoxide
Approximately 40 nematode larvae (Cooperia curticei) are transferred into a test tube containing the compound solution.
After 5 days percentage of larval mortality is recorded. 100% efficacy means all larvae are killed; 0% efficacy means no larvae are killed.

[6] = tested on: Haemonchus contortus; test: Haemonchus contortus larval mortality; conditions: 120 h, read-out: activity (percentage of larval mortality)
Experimental: In Vitro Assay 7: Haemonchus contortus
Solvent: Dimethyl Sulfoxide
Approximately 40 larvae of the red stomach worm (Haemonchus contortus) are transferred into a test tube containing compound solution.
After 5 days the percentage of larval mortality is recorded. 100% efficacy means all larvae are killed, 0% efficacy means no larvae are killed.

[7] = tested on: Litomosoides sigmodontis third-stage larvae; test: Litomosoides sigmodontis (LTMOSI L3) larval motility; conditions: 72 h, read-out: EC50 (reduction of motility)
Experimental: In Vitro Assay 6: Litomosoides sigmodontis (LTMOSI L3)
10 Litomosoides sigmodontis third-stage larvae, which were freshly isolated from the pleural cavity of an infected rodent, were added to wells of a microtitre plate containing a nutrient medium and the test compound in DMSO. Compounds were tested in concentration-response assay in duplicate. Larvae exposed to DMSO and no test compounds were used as negative controls. Larvae were evaluated after 72 h of incubation with the compound. Efficacy was determined as the reduction of motility in comparison to the negative control. Based on the evaluation of a wide concentration range, concentration-response curves as well as EC50-values were calculated.

[8] = target: C. elegans Slo-1a (Caenorhabditis elegans, UniProt Q95V25); conditions: pE50 (negative decadic logarithm of EC50), CHO cells expressing C. elegans Slo-1a; voltage sensitive dye, 70 mM KCl
C. elegans Slo-1a, sequence (Q95V25 whole entry): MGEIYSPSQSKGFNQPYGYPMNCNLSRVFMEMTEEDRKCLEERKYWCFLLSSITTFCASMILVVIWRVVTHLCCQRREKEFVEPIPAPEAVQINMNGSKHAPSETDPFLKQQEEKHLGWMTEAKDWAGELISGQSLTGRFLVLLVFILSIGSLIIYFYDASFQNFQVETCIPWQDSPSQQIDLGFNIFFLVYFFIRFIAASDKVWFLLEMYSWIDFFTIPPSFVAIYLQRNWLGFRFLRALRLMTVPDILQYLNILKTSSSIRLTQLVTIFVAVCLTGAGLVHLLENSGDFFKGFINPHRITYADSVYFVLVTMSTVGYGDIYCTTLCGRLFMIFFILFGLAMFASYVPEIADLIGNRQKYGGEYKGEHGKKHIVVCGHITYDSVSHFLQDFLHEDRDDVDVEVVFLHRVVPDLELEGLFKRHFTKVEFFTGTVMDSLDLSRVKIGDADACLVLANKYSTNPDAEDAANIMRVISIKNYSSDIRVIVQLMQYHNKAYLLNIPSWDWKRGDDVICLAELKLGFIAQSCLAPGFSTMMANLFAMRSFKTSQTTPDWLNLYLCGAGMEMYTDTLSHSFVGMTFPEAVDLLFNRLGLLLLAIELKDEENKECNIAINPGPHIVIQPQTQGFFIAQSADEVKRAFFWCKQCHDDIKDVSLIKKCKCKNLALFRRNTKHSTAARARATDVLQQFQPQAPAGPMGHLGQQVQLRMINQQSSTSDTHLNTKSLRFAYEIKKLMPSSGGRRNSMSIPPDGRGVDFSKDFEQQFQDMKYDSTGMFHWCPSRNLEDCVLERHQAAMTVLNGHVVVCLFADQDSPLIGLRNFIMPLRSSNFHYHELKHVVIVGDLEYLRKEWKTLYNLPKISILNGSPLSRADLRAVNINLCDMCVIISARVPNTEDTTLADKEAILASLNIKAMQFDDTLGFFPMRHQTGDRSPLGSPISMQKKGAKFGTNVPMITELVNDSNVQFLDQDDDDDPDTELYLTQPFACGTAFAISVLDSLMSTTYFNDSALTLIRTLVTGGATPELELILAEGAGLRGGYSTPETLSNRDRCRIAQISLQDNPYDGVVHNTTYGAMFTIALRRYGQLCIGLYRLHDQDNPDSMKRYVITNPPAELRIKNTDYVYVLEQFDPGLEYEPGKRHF
Experimental: Generation of a Stable C. elegans CHO Cell Line
A CHO cell line was obtained from ATCC, code ATCC CRL-9096. […] The transfection solution included 300 μL OptiMEM (Life Technologies, Nr.: 31985), 2 μL (=6 μg) of plasmid DNA containing the C. elegans Slo 1a gene and 9 μL FugeneHD (Promega, Nr.: E2311), and was added to the cells prior to incubation for 48 hours at 37° C., 5% CO2. The transfection medium was exchanged for the selection medium which contains additional G418 (2 mg/ml, Invitrogen, Nr.: 10131) and the cells were seeded into 384 well plates (300 cells/well). After a few weeks, the remaining surviving cells were tested with a voltage sensitive dye (Membrane Potential Assay Kit, Molecular Devices Nr.: R8034) for K+ channel expression. Positive cell clones were purified by the limited dilution technique. For this the clone with the highest and most robust signal in the voltage sensitive dye assay was further subcloned (incubated) in 384 well plates (0.7 cells/well) in order to obtain clonal purity. This generated a final stable CHO cell line expressing the C. elegans Slo-1a.
Cells were cultured at 37° C. and 5% CO2 in MEMalpha with Gutamax I (Invitrogen, Nr.: 32571), supplemented with 10% (v/v) heat inactivated fetal bovine serum (Invitrogen, Nr.: 10500), G418 (1 mg/ml, Invitrogen, Nr.: 10131). Cells were detached using Accutase (Sigma, Nr.: A6964).
Membrane Potential Measurements
Laboratory compound testing was performed on 384-well microtiter plates (MTPs, Greiner, Nr.: 781092). 8000 cells/well were plated onto 384-well MTPs and cultured for 20 to 24 hours at 37° C. and 5% CO2. After removal of the cell culture medium, the cells were washed once with tyrode (150 mM NaCl, 0.3 mM KCl, 2 mM CaCl2, 1 mM MgCl2, 0.8 mM NaH2PO4, 5 mM Glucose, 28 mM Hepes, pH 7.4) and then loaded with the voltage sensitive dye of the Membrane Potential Assay Kit diluted in tyrode for 1 h at room temperature.
After starting the measurement of fluorescence using a FLIPR Tetra (Molecular Devices, Exc. 510-545 nm, Emm. 565-625 nm), test compounds were added followed by the addition of KCl tyrode (final assay concentration: 70 mM KCl, 2 mM CaCl2, 1 mM MgCl2, 0.8 mM NaH2PO4, 5 mM Glucose, 28 mM Hepes, pH 7.4, including the voltage sensitive dye). The measurement was completed after 7 minutes.
The data were evaluated by using the ActivityBase XLfit software (IDBS) for curve fitting and calculation of the half-maximal effective concentration (EC50) and are reported as negative decadic logarithm (pE50).

D. immitis Slo-1, sequence (I0DFK5 1-1119): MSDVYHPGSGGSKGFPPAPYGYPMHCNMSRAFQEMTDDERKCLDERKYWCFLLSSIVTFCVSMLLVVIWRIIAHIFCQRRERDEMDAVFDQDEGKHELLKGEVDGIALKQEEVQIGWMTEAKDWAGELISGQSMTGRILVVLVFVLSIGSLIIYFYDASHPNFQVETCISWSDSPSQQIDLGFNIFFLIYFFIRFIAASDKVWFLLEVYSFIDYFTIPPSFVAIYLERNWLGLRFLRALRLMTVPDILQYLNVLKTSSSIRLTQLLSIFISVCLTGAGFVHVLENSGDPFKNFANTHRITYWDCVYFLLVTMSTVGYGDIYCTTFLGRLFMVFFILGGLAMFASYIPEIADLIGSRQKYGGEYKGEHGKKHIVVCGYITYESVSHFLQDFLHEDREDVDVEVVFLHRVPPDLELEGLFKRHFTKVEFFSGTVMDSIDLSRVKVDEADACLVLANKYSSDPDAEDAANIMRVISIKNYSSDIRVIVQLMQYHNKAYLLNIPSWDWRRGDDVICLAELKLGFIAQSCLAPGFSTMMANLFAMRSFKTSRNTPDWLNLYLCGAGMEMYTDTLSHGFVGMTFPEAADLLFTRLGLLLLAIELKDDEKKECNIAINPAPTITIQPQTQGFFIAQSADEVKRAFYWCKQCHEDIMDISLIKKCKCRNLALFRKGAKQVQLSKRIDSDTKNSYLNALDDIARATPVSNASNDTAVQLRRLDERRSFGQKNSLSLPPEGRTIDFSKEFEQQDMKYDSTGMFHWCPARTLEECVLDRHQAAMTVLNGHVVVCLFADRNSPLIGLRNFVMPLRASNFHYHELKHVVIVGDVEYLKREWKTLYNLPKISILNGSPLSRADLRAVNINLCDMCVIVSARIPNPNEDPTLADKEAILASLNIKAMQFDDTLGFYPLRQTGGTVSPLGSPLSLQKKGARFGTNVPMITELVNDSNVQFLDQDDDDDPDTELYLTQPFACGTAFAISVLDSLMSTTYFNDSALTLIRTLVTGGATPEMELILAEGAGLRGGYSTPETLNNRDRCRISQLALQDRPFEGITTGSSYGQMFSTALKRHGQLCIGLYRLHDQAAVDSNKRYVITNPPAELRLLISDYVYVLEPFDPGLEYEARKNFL

CN(C)c1c(C(=O)N[C@H]2CCOc3ccccc32)cnc2c(-c3cccc(Cl)c3Cl)ccnc12 [Example T3-3, 8-(2,3-Dichlorophenyl)-N-[(4S)-3,4-dihydro-2H-chromen-4-yl]-4-(dimethylamino)-1,5-naphthyridine-3-carboxamide] gave an EC50 [1] of 3.16 to 31.6 nM, an inhibition at 1 µg/mL [2] greater than 80% and an EC50 [3] of less than 0.1 µg/mL. The EC50 [4] was less than 0.1 µg/mL, the mortality at 4 ppm [5] was 100% and the mortality at 20 ppm [5] was 100%. The mortality at 20 ppm [6] was 100%, the EC50 [7] was less than 0.1 µg/mL and the EC50 [8] was less than 3.16 nM.
